“Also recorded” adds a separate entry of the source.
Tested on: scce-transgenic mice
Experiment: Scratching behaviour (itch) in scce-transgenic mice for testing of antipruritic agents
Format: in vivo
Settings: scce-transgenic mice 20-21 weeks; tube feeding, 30 μl of 1 mg/ml mixture (FIG. 8A), 90 μl 7 days later (FIG. 8B); versus sucrose control solution
Experimental: Scratching behavior of scce-transgenic (#1010) mice. Twenty one mice, (11 transgenes, 5 females; 10 wild type litter mates, 2 females) were observed every fifth day for 45 days, starting when the mice were 5-6 weeks of age. At each observation point mice were transferred to individual cages, and episodes of scratching with hind or front paws were counted during three 5-min periods with 2.5 min lapsing from the transfer to the cage to the first counting, and between counting periods. The results for the three observation periods were pooled and the number of episodes of scratching per min calculated. […]
Transgenic mice, 18-22 weeks of age, mean weight 24.2 g, were given subcutaneous injections of either 250 μg of the glucocorticoid triamcinolone acetonide in a total volume of 100 μl on day 0, and 100 μg triamcinolone acetonide in a total volume of 100 μl on days 7, 14 and 21, or 100 μl of physiological saline at the same time points. Episodes of scratching were counted in the morning and injections were given in the afternoon. […]
Transgenic mice 20-21 weeks of age, mean weight […], were given either loratidine in a total volume of 100 μl, or 100 μl of a control solution by means of tube feeding. Episodes of scratching were counted immediately before feeding (0 hours), and then at time points as indicated. […]

CCOC(=O)N1CCC(=C2c3ccc(Cl)cc3CCc3cccnc32)CC1 [loratidine]
effect on itch (frequency of scratching): no significant difference in frequency of scratching; also recorded: no statistically significant antipruritic effect; also recorded: no statistically significant differences in frequency of scratching

Reference: patent publication US7019194B2, “SCCE modified transgenic mammals and their use as models of human disease” (priority 2001, dated 2006)
